In patent US8440710B2, “HSL inhibitors useful in the treatment of diabetes” (Hoffmann-La Roche Inc., priority 2009, dated 2013):

Molecular target: T1, human HSL (Homo sapiens, UniProt Q05469)
T1 construct: generate a full length human HSL ORF with a 3′-His6 tag; made in house; host or cells: High 5 insect cells (baculovirus, pFast-BAC)
T1 sequence (Q05469 1-1076): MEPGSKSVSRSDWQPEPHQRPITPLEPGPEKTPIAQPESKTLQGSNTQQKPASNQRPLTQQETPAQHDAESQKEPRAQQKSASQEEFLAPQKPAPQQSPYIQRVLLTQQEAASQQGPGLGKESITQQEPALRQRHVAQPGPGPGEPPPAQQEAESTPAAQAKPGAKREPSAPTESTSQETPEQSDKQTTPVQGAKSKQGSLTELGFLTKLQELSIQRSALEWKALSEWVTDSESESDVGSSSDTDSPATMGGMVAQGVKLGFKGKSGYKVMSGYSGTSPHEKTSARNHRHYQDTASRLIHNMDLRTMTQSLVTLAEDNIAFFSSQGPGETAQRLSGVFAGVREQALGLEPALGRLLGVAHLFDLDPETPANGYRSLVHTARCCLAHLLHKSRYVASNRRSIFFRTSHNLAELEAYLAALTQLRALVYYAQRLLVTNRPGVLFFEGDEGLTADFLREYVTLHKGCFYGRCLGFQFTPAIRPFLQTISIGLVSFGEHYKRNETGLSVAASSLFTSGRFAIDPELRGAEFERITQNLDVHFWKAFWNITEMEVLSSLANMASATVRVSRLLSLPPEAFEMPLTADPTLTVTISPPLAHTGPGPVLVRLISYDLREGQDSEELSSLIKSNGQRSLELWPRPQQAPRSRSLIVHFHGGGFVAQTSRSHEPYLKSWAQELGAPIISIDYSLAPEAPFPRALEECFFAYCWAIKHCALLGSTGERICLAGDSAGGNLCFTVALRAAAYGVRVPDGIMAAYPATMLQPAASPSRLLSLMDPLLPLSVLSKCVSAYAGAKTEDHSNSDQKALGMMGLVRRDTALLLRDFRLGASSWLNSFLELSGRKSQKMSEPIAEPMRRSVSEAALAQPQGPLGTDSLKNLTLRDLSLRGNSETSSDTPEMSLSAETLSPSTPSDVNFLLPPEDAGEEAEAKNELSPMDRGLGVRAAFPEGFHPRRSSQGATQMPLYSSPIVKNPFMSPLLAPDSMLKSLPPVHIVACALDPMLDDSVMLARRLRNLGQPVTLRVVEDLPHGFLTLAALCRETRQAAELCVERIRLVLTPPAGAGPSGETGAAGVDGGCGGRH
Test: Human Hormone-Sensitive Lipase (HSL) enzyme inhibition assay (colorimetric, DMPT substrate)
Type: biochemical
Details: human full length HSL-His6, 2,3-dimercapto-1-propanol tributyrate substrate, 37° C. 20 minutes, absorbance at 405 nm; read-out: HSL hum IC50
How it was run: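 Full-length human HSL with C-terminal His6, expressed in baculovirus-infected High 5 cells and Ni-NTA purified, was added (15 ug/ml stock) to 1.5 mM DMPT in 100 mM MOPS pH 7.2, 0.2 mg/ml fatty acid-free BSA containing compound. After 20 min at 37 °C, DTNB with SDS/Triton X-100 was added; A405 read after 15 min at RT.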

IC50 [nM]	SMILES
80	CCC[C@]1(O)CC[C@]2(CCN(c3ccc(OCCCOC)cc3)C2=O)CC1 [Example 94, (5α,8α)-8-Hydroxy-2-[4-(3-methoxy-propoxy)-phenyl]-8-propyl-2-aza-spiro[4.5]decan-1-one]
240	CCC[C@]1(O)CC[C@]2(CCN(c3ccc(OCCOC)cc3)C2=O)CC1 [Example 95, (5α,8α)-8-Hydroxy-2-[4-(2-methoxy-ethoxy)-phenyl]-8-propyl-2-aza-spiro[4.5]decan-1-one]
60	CCCC[C@]1(O)CC[C@]2(CCN(c3ccc(OCCOC)cc3)C2=O)CC1 [Example 96, (5α,8α)-8-Butyl-8-hydroxy-2-[4-(2-methoxy-ethoxy)-phenyl]-2-aza-spiro[4.5]decan-1-one]
1820	CCCC[C@]1(O)CC[C@@]2(CCN(c3ccc(OCCOC)cc3)C2=O)CC1 [Example 97, (5α,8β)-8-Butyl-8-hydroxy-2-[4-(2-methoxy-ethoxy)-phenyl]-2-aza-spiro[4.5]decan-1-one]
2500	O=C1N(c2ccc(OCCC(F)(F)F)cc2)CC[C@]12CC[C@@H](O)CC2 [Example 98, (5α,8β)-8-Hydroxy-2-[4-(3,3,3-trifluoro-propoxy)-phenyl]-2-aza-spiro[4.5]decan-1-one]
30	CCC[C@]1(O)CC[C@]2(CCN(c3ccc(OCCC(F)(F)F)cc3)C2=O)CC1 [Example 99, (5α,8α)-8-Hydroxy-8-propyl-2-[4-(3,3,3-trifluoro-propoxy)-phenyl]-2-aza-spiro[4.5]decan-1-one]
360	CCC[C@]1(O)CC[C@@]2(CCN(c3ccc(OCCC(F)(F)F)cc3)C2=O)CC1 [Example 100, (5α,8β)-8-Hydroxy-8-propyl-2-[4-(3,3,3-trifluoro-propoxy)-phenyl]-2-aza-spiro[4.5]decan-1-one]
110	CCC[C@]1(O)CC[C@]2(CCN(c3ccc(C(C)C)nc3)C2=O)CC1 [Example 101, (5α,8α)-8-Hydroxy-2-(6-isopropylpyridin-3-yl)-8-propyl-2-aza-spiro[4.5]decan-1-one]
100	CC(C)c1ccc(N2CC[C@]3(CC[C@@](O)(C(C)C)CC3)C2=O)cn1 [Example 102, (5α,8α)-8-Hydroxy-8-isopropyl-2-(6-isopropylpyridin-3-yl)-2-aza-spiro[4.5]decan-1-one]
20	CC(C)[C@]1(O)CC[C@]2(CCN(c3ccc(OCC(F)(F)F)cc3)C2=O)CC1 [Example 103, (5α,8α)-8-Hydroxy-8-isopropyl-2-[4-(2,2,2-trifluoro-ethoxy)-phenyl]-2-aza-spiro[4.5]decan-1-one]
20	CCC[C@]1(O)CC[C@]2(CCN(c3ccc(OCC(F)(F)F)cc3)C2=O)CC1 [Example 104, 8-Hydroxy-8-propyl-2-[4-(2,2,2-trifluoro-ethoxy)-phenyl]-2-aza-spiro[4.5]decan-1-one]
30	C=C(C)[C@]1(O)CC[C@]2(CCN(c3ccc(OCC(F)(F)F)cc3)C2=O)CC1 [Example 105, (5α,8α)-8-Hydroxy-8-(prop-1-en-2-yl)-2-(4-(2,2,2-trifluoroethoxy)phenyl)-2-aza-spiro[4.5]decan-1-one]
1350	C=C(C)[C@]1(O)CC[C@@]2(CCN(c3ccc(OCC(F)(F)F)cc3)C2=O)CC1 [Example 106, (5α,8β)-8-Hydroxy-8-(prop-1-en-2-yl)-2-(4-(2,2,2-trifluoroethoxy)phenyl)-2-aza-spiro[4.5]decan-1-one]
2030	CC(C)[C@]1(O)CC[C@@]2(CCN(c3ccc(OCC(F)(F)F)cc3)C2=O)CC1 [Example 107, (5α,8β)-8-Hydroxy-8-isopropyl-2-(4-(2,2,2-trifluoroethoxy)phenyl)-2-aza-spiro[4.5]decan-1-one]
20	CC(C)[C@]1(O)CC[C@]2(CCN(c3ccc(OCC(F)(F)F)nc3)C2=O)CC1 [Example 108, (5α,8α)-8-Hydroxy-8-isopropyl-2-(6-(2,2,2-trifluoroethoxy)pyridin-3-yl)-2-aza-spiro[4.5]decan-1-one]
